Experimental data as given in patent US10464977B2 (University of Maryland, Baltimore, priority 2016, dated 2019).
Residues, ends and D or L forms follow the SMILES beside them.

Experiments:
[1] = system: C. albicans cells (ATCC 90028); test: Degradation of peptides by whole C. albicans cells, gel densitometry; format: in vitro ADME; conditions: 1×10^9 cells mL^−1, 150 μg mL^−1 peptide, 2 h, 37° C., 100 mM NaPB
Experimental: For degradation with C. albicans, a single colony of the ATCC 90028 strain (American Type Culture Collection) was used to inoculate YPD. The culture was grown overnight, subcultured, and grown to an optical density of 1-1.2 at OD600. All incubations were done at 30° C. The cells were washed three times in 100 mM NaPB and diluted to 2×10^9 cells mL^−1. Equal volumes of cells and peptides were mixed and incubated for 2 h at 37° C. The cells were removed by centrifugation, and the supernatants were mixed with tricine sample buffer and boiled for 10 min. The samples were then run on gels and analyzed as described above for degradation by the Saps. Three biological replicates were performed.
After observing the effect of residue modifications on the cleavage of Hst-5 by the purified recombinant Saps, whether incubation of the peptides with whole C. albicans cells expressing Saps (rather than Saps produced recombinantly) would yield similar results was evaluated. Hst-5 and the synthetic peptides were incubated with C. albicans cells for 2 h at 37° C. in 100 mM NaPB. The high ionic strength of this buffer prevents internalization of the peptides by C. albicans (4) allowing analysis of degradation of the peptides without the confounding effects of peptide internalization, which would reduce the amount of peptide in the reaction buffer.

Sap9 = Sap9 (Candida albicans, UniProt Q59SU1); test: in vitro; conditions: 2 h, 37° C.; for degradation by Sap9 (in words): 3.13 μg mL^−1 Sap9, 150 μg mL^−1 peptide; for degradation at higher Sap9 concentration (in words): 6.25 μg mL^−1 Sap9, 150 μg mL^−1 peptide
Experimental: (§1) Experiments were done in 1 mM NaPB. The mixtures were incubated at 37° C. for 2 h, and NaPB with no Sap was used as a control. After the incubation, the samples were mixed with tricine sample buffer (without Coomassie Blue G-250, except in control samples) containing β-mercaptoethanol and boiled for 5 min at 100° C. to inactivate the proteases. The degraded and non-degraded peptides were separated by gel electrophoresis in 10-20% Tris-tricine gels (Bio-Rad), and the gels were then fixed in a 10% acetic acid/40% methanol/50% water mixture for 30 min. The fixed gels were stained with Bio-Safe Coomassie stain (Bio-Rad) for 1 h and washed with fresh water three times, once overnight and then twice for at least 2 h each time. The gels were imaged on a Chemidoc imager (Bio-Rad), and densitometric analysis was done with Image Lab software (Bio-Rad). […] Three replicates of the assay were done.
(§2) To measure the antifungal activity of the peptides following degradation by the Saps, the antifungal activity assay was performed as described above, except the peptides were first exposed to Saps. The peptide fragments were prepared by incubating each peptide (150 μg mL^−1) with 6.25 μg mL^−1 Sap9 or 18 μg mL^−1 Sap2 for 2 h at 37° C. The enzymes were then inactivated by heating at 100° C. for 5 min. As controls, each peptide was also incubated with only NaPB buffer. Samples were then stored at −20° C. until use in the antifungal activity assay.
(§3) The intact peptide was then separated from the degradation products using gel electrophoresis and quantified the level of degradation using densitometric analysis of Coomassie-stained gels.
(§4) To amplify differences in antifungal activity due to degradation by the Saps, the concentrations of the Saps was increased by at least two-fold compared to the concentrations used for the gel electrophoresis data in FIGS. 1A-1D (to 6.25 μg mL^−1 for Sap9 and 18 μg mL^−1 for Sap2).

Sap2 = Sap2 (Candida albicans, UniProt P0DJ06); test: in vitro; conditions: 2 h, 37° C.; for degradation by Sap2 (in words): 6.25 μg mL^−1 Sap2, 150 μg mL^−1 peptide
Experimental: as §1, §2, §3, §4

Sequence of Sap9 (Q59SU1 18-520): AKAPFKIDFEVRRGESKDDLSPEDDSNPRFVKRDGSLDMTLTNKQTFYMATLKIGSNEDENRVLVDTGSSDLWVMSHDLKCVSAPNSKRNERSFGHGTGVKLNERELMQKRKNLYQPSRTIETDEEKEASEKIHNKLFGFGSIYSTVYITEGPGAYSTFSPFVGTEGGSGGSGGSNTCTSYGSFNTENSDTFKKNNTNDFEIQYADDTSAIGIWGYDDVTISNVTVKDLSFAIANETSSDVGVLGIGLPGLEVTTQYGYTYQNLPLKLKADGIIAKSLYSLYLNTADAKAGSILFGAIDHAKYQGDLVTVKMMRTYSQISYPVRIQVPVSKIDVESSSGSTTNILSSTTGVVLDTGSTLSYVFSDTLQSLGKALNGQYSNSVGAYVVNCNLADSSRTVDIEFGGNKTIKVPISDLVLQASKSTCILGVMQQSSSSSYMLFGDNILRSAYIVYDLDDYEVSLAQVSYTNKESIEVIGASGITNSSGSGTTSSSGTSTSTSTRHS
Sequence of Sap2 (P0DJ06 57-398): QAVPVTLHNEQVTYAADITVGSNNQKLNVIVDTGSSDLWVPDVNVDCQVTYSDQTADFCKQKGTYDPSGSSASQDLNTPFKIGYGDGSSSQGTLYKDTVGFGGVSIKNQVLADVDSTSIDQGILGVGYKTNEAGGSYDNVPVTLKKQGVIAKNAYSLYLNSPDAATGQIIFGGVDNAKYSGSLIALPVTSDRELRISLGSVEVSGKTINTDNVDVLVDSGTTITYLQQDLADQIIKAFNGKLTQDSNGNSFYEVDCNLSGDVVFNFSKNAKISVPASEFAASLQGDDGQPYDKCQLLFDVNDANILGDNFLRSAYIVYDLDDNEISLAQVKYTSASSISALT

Row | SMILES | degradation by C. albicans cells (in words) [1] | degradation by Sap9 (in words) (Sap9) | degradation at higher Sap9 concentration (in words) (Sap9) | intact peptide at higher Sap2 concentration (in words) (Sap2; 18 μg mL^−1 Sap2, 150 μg mL^−1 peptide) | degradation by Sap2 (in words) (Sap2)
1 | CC(C)C[C@H](NC(=O)[C@H](C)NC(=O)[C@H](Cc1c[nH]cn1)NC(=O)[C@H](CO)NC(=O)[C@@H](N)CC(=O)O)C(=O)N[C@@H](CCCNC(=N)N)C(=O)N[C@@H](Cc1c[nH]cn1)C(=O)N[C@@H](Cc1c[nH]cn1)C(=O)NCC(=O)N[C@@H](Cc1ccc(O)cc1)C(=O)N[C@@H](CCCCN)C(=O)N[C@@H](CCCNC(=N)N)C(=O)N[C@@H](CCCCN)C(=O)N[C@@H](Cc1ccccc1)C(=O)N[C@@H](Cc1c[nH]cn1)C(=O)N[C@@H](CCC(=O)O)C(=O)N[C@@H](CCCCN)C(=O)N[C@@H](Cc1c[nH]cn1)C(=O)N[C@@H](Cc1c[nH]cn1)C(=O)N[C@@H](CO)C(=O)N[C@@H](Cc1c[nH]cn1)C(=O)N[C@@H](CCCNC(=N)N)C(=O)NCC(=O)N[C@@H](Cc1ccc(O)cc1)C(=O)O [Peptide K5L] (H-DSHALRHHGYKRKFHEKHHSHRGY-OH; N-terminus and C-terminus assumed) | decrease in proteolysis | greater degradation than their arginine-substituted counterparts or parent Hst-5 | not intact |  | 
2 | C[C@H](NC(=O)[C@H](Cc1c[nH]cn1)NC(=O)[C@H](CO)NC(=O)[C@@H](N)CC(=O)O)C(=O)N[C@@H](CCCNC(=N)N)C(=O)N[C@@H](CCCNC(=N)N)C(=O)N[C@@H](Cc1c[nH]cn1)C(=O)N[C@@H](Cc1c[nH]cn1)C(=O)NCC(=O)N[C@@H](Cc1ccc(O)cc1)C(=O)N[C@@H](CCCCN)C(=O)N[C@@H](CCCNC(=N)N)C(=O)N[C@@H](CCCCN)C(=O)N[C@@H](Cc1ccccc1)C(=O)N[C@@H](Cc1c[nH]cn1)C(=O)N[C@@H](CCC(=O)O)C(=O)N[C@@H](CCCCN)C(=O)N[C@@H](Cc1c[nH]cn1)C(=O)N[C@@H](Cc1c[nH]cn1)C(=O)N[C@@H](CO)C(=O)N[C@@H](Cc1c[nH]cn1)C(=O)N[C@@H](CCCNC(=N)N)C(=O)NCC(=O)N[C@@H](Cc1ccc(O)cc1)C(=O)O [Peptide K5R] (H-DSHARRHHGYKRKFHEKHHSHRGY-OH; N-terminus and C-terminus assumed) | no significant effect |  |  | no statistically significant amount of these peptides remained | 
3 | C[C@H](NC(=O)[C@H](Cc1c[nH]cn1)NC(=O)[C@H](CO)NC(=O)[C@@H](N)CC(=O)O)C(=O)N[C@@H](CCCCN)C(=O)N[C@@H](CCCNC(=N)N)C(=O)N[C@@H](Cc1c[nH]cn1)C(=O)N[C@@H](Cc1c[nH]cn1)C(=O)NCC(=O)N[C@@H](Cc1ccc(O)cc1)C(=O)N[C@@H](CCCNC(=N)N)C(=O)N[C@@H](CCCNC(=N)N)C(=O)N[C@@H](CCCCN)C(=O)N[C@@H](Cc1ccccc1)C(=O)N[C@@H](Cc1c[nH]cn1)C(=O)N[C@@H](CCC(=O)O)C(=O)N[C@@H](CCCNC(=N)N)C(=O)N[C@@H](Cc1c[nH]cn1)C(=O)N[C@@H](Cc1c[nH]cn1)C(=O)N[C@@H](CO)C(=O)N[C@@H](Cc1c[nH]cn1)C(=O)N[C@@H](CCCNC(=N)N)C(=O)NCC(=O)N[C@@H](Cc1ccc(O)cc1)C(=O)O [Peptide K11R-K17R] (H-DSHAKRHHGYRRKFHERHHSHRGY-OH; N-terminus and C-terminus assumed) |  | no observable degradation |  |  | no observable degradation
4 | C[C@H](NC(=O)[C@H](Cc1c[nH]cn1)NC(=O)[C@H](CO)NC(=O)[C@@H](N)CC(=O)O)C(=O)N[C@@H](CCCCN)C(=O)N[C@@H](CCCNC(=N)N)C(=O)N[C@@H](Cc1c[nH]cn1)C(=O)N[C@@H](Cc1c[nH]cn1)C(=O)NCC(=O)N[C@@H](Cc1ccc(O)cc1)C(=O)N[C@@H](CCCNC(=N)N)C(=O)N[C@@H](CCCNC(=N)N)C(=O)N[C@@H](CCCCN)C(=O)N[C@@H](Cc1ccccc1)C(=O)N[C@@H](Cc1c[nH]cn1)C(=O)N[C@@H](CCC(=O)O)C(=O)N[C@@H](CCCCN)C(=O)N[C@@H](Cc1c[nH]cn1)C(=O)N[C@@H](Cc1c[nH]cn1)C(=O)N[C@@H](CO)C(=O)N[C@@H](Cc1c[nH]cn1)C(=O)N[C@@H](CCCNC(=N)N)C(=O)NCC(=O)N[C@@H](Cc1ccc(O)cc1)C(=O)O [Peptide K11R] (H-DSHAKRHHGYRRKFHEKHHSHRGY-OH; N-terminus and C-terminus assumed) | did not show a significant difference in degradation of the peptide compared to Hst-5 | did not show a significant increase in resistance to the protease | significant reduction in degradation compared to Hst-5 |  | 
5 | CC(C)C[C@H](NC(=O)[C@H](Cc1c[nH]cn1)NC(=O)[C@H](Cc1ccccc1)NC(=O)[C@H](CCCCN)NC(=O)[C@H](CCCNC(=N)N)NC(=O)[C@H](CCCCN)NC(=O)[C@H](Cc1ccc(O)cc1)NC(=O)CNC(=O)[C@H](Cc1c[nH]cn1)NC(=O)[C@H](Cc1c[nH]cn1)NC(=O)[C@H](CCCNC(=N)N)NC(=O)[C@H](CCCCN)NC(=O)[C@H](C)NC(=O)[C@H](Cc1c[nH]cn1)NC(=O)[C@H](CO)NC(=O)[C@@H](N)CC(=O)O)C(=O)N[C@@H](CCCCN)C(=O)N[C@@H](Cc1c[nH]cn1)C(=O)N[C@@H](Cc1c[nH]cn1)C(=O)N[C@@H](CO)C(=O)N[C@@H](Cc1c[nH]cn1)C(=O)N[C@@H](CCCNC(=N)N)C(=O)NCC(=O)N[C@@H](Cc1ccc(O)cc1)C(=O)O [Peptide E16L] (H-DSHAKRHHGYKRKFHLKHHSHRGY-OH; N-terminus and C-terminus assumed) |  | increased compared to Hst-5 |  |  | increased compared to Hst-5
6 | CC(C)C[C@H](NC(=O)[C@H](Cc1ccc(O)cc1)NC(=O)CNC(=O)[C@H](Cc1c[nH]cn1)NC(=O)[C@H](Cc1c[nH]cn1)NC(=O)[C@H](CCCNC(=N)N)NC(=O)[C@H](CCCCN)NC(=O)[C@H](C)NC(=O)[C@H](Cc1c[nH]cn1)NC(=O)[C@H](CO)NC(=O)[C@@H](N)CC(=O)O)C(=O)N[C@@H](CCCNC(=N)N)C(=O)N[C@@H](CCCCN)C(=O)N[C@@H](Cc1ccccc1)C(=O)N[C@@H](Cc1c[nH]cn1)C(=O)N[C@@H](CCC(=O)O)C(=O)N[C@@H](CCCCN)C(=O)N[C@@H](Cc1c[nH]cn1)C(=O)N[C@@H](Cc1c[nH]cn1)C(=O)N[C@@H](CO)C(=O)N[C@@H](Cc1c[nH]cn1)C(=O)N[C@@H](CCCNC(=N)N)C(=O)NCC(=O)N[C@@H](Cc1ccc(O)cc1)C(=O)O [Peptide K11L] (H-DSHAKRHHGYLRKFHEKHHSHRGY-OH; N-terminus and C-terminus assumed) |  | greater degradation than their arginine-substituted counterparts or parent Hst-5 | not intact |  | 
